Patent publication US11524938B2, “Aromatic sulfonamide derivatives” (Bayer Pharma Aktiengesellschaft, priority 2016, dated 2022)

Target: T1, human P2X4 (Homo sapiens, UniProt Q99571)
T1 sequence (Q99571 1-388): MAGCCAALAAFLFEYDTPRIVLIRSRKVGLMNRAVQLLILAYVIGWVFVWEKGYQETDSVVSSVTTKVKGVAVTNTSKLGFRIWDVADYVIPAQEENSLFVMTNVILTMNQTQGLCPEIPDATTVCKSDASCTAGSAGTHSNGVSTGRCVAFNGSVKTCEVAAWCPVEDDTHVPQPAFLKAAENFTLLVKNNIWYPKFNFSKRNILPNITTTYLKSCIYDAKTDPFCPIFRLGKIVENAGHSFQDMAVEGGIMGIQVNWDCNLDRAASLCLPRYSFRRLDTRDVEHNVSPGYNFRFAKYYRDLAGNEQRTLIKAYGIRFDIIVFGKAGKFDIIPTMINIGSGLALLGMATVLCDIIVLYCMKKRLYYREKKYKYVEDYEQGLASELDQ
Test: Human P2X4 HEK Cell FLIPR Assay
Assay type: cell-based
Conditions: agonist Bz-ATP at EC80; for Emax: HEK293, HEK293 cells, percentage of maximal inhibition, read-out: Human P2X4 HEK Cells (FLIPR Assay) avg Efficacy [%]; for IC50: HEK293 cells, individual values listed where some fall outside detection range
Procedure, shortened: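 Calcium flux read by FLIPR for 120 sec after Bz-ATP challenge at EC80 (established each assay day), following 30 min room-temperature compound preincubation in dye-loaded stable human P2X4 HEK293 cells. Peak RFU over basal normalized to agonist control; IC50, maximal inhibition and Hill coefficient from triplicate means.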

| SMILES | Emax [%] | IC50 [µM] |
| --- | --- | --- |
| NS(=O)(=O)c1cc(NC(=O)Cc2ccccc2F)ccc1-c1cncc(C(F)(F)F)c1 [Example 221, 2-(2-Fluorophenyl)-N-{3-sulfamoyl-4-[5-(trifluoromethyl)pyridin-3-yl]phenyl}-acetamide] | 63 | 0.04 |
| NS(=O)(=O)c1cc(NC(=O)Cc2ccccc2C(F)F)ccc1-c1cnn(C(F)F)c1 [Example 225, 2-[2-(Difluoromethyl)phenyl]-N-{4-[1-(difluoromethyl)-1H-pyrazol-4-yl]-3-sulfamoyl-phenyl}acetamide] | 91 | 0.07 |
| COc1ccccc1CC(=O)Nc1ccc(-c2cnn(C(F)F)c2)c(S(N)(=O)=O)c1 [Example 226, N-{4-[1-(Difluoromethyl)-1H-pyrazol-4-yl]-3-sulfamoylphenyl}-2-(2-methoxyphenyl)-acetamide] | 104 | 0.111 |
| NS(=O)(=O)c1cc(NC(=O)Cc2ccc(F)cc2)ccc1-c1cnn(C(F)F)c1 [Example 227, N-{4-[1-(Difluoromethyl)-1H-pyrazol-4-yl]-3-sulfamoylphenyl}-2-(4-fluorophenyl)-acetamide] | 95 | 0.404 |
| NS(=O)(=O)c1cc(NC(=O)Cc2cc(F)ccc2Cl)ccc1-c1cnn(C(F)F)c1 [Example 228, 2-(2-Chloro-5-fluorophenyl)-N-{4-[1-(difluoromethyl)-1H-pyrazol-4-yl]-3-sulfamoyl-phenyl}acetamide] | 92 | 0.037 |
| NS(=O)(=O)c1cc(NC(=O)Cc2cccc(Cl)c2Cl)ccc1-c1cnn(C(F)F)c1 [Example 229, 2-(2,3-Dichlorophenyl)-N-{4-[1-(difluoromethyl)-1H-pyrazol-4-yl]-3-sulfamoylphenyl}-acetamide] | 94 | 0.016 |
| NS(=O)(=O)c1cc(NC(=O)Cc2ccncc2Cl)ccc1-c1cnn(C(F)F)c1 [Example 230, 2-(3-Chloropyridin-4-yl)-N-{4-[1-(difluoromethyl)-1H-pyrazol-4-yl]-3-sulfamoyl-phenyl}acetamide] | 90 | 0.351 |
| NS(=O)(=O)c1cc(NC(=O)Cc2ccccc2Cl)ccc1-n1cnc(C2CCC2)n1 [Example 231, 2-(2-Chlorophenyl)-N-[4-(3-cyclobutyl-1H-1,2,4-triazol-1-yl)-3-sulfamoylphenyl]-acetamide] | 81 | 0.051 |
| CC(C)c1ncn(-c2ccc(NC(=O)Cc3ccccc3Cl)cc2S(N)(=O)=O)n1 [Example 233, 2-(2-Chlorophenyl)-N-[4-(3-isopropyl-1H-1,2,4-triazol-1-yl)-3-sulfamoylphenyl]-acetamide] | 80 | 0.093 |
| NS(=O)(=O)c1cc(NC(=O)Cc2ccccc2C(F)(F)F)ccc1-n1cc(Cl)cn1 [Example 234, N-[4-(4-Chloro-1H-pyrazol-1-yl)-3-sulfamoylphenyl]-2-[2-(trifluoromethyl)-phenyl]acetamide] | 96 | 0.093 |
| CCOC(=O)c1cnn(-c2ccc(NC(=O)Cc3ccccc3Cl)cc2S(N)(=O)=O)c1 [Example 235, Ethyl 1-(4-{[(2-chlorophenyl)acetyl]amino}-2-sulfamoylphenyl)-1H-pyrazole-4-carboxylate] | 35 | > 25 |
| CCOC(=O)c1cnn(-c2ccc(NC(=O)Cc3ccccc3F)cc2S(N)(=O)=O)c1 [Example 236, Ethyl 1-(4-{[(2-fluorophenyl)acetyl]amino}-2-sulfamoylphenyl)-1H-pyrazole-4-carboxylate] | 54 | 0.036 |
| CC(C)(O)c1cnn(-c2ccc(NC(=O)Cc3ccccc3F)cc2S(N)(=O)=O)c1 [Example 237, 2-(2-Fluorophenyl)-N-{4-[4-(2-hydroxypropan-2-yl)-1H-pyrazol-1-yl]-3-sulfamoyl-phenyl}acetamide] | 72 | 1.89 |
| NS(=O)(=O)c1cc(NC(=O)Cc2cccnc2Cl)ccc1-n1cnc(C(F)(F)F)n1 [Example 239, 2-(2-Chloropyridin-3-yl)-N-{3-sulfamoyl-4-[3-(trifluoromethyl)-1H-1,2,4-triazol-1-yl]phenyl}acetamide] | 81 | 2.59 |
| CN(C(=O)Cc1ccccc1Cl)c1ccc(-n2cc(C(F)(F)F)cn2)c(S(N)(=O)=O)c1 [Example 240, 2-(2-Chlorophenyl)-N-methyl-N-{3-sulfamoyl-4-[4-(trifluoromethyl)-1H-pyrazol-1-yl]phenyl}acetamide] | 93 | 3.44 |
| NS(=O)(=O)c1cc(NC(=O)Cc2ccccc2Cl)ccc1-n1ncc(C(F)(F)F)n1 [Example 241, 2-(2-Chlorophenyl)-N-{3-sulfamoyl-4-[4-(trifluoromethyl)-2H-1,2,3-triazol-2-yl]-phenyl}acetamide] | 92 | 0.048 |
| NS(=O)(=O)c1cc(NC(=O)Cc2ccccc2F)ccc1-n1cnc(Cl)n1 [Example 246, N-[4-(3-Chloro-1H-1,2,4-triazol-1-yl)-3-sulfamoylphenyl]-2-(2-fluorophenyl)acetamide] | 100 | 0.252 |
| N#Cc1cc(NC(=O)Cc2ccccc2Cl)cc(S(N)(=O)=O)c1-n1cc(F)cn1 [Example 247, 2-(2-Chlorophenyl)-N-[3-cyano-4-(4-fluoro-1H-pyrazol-1-yl)-5-sulfamoyl-phenyl]acetamide] | 64 | 0.069 |
| COc1ncn(-c2ccc(NC(=O)Cc3ccccc3Cl)cc2S(N)(=O)=O)n1 [Example 249, 2-(2-Chlorophenyl)-N-[4-(3-methoxy-1H-1,2,4-triazol-1-yl)-3-sulfamoylphenyl]-acetamide] | 72 | 8.46 |
| NS(=O)(=O)c1cc(NC(=O)Cc2ccccc2Cl)ccc1-n1cnc(C2CC2)c1 [Example 250, 2-(2-Chlorophenyl)-N-[4-(4-cyclopropyl-1H-imidazol-1-yl)-3-sulfamoylphenyl]-acetamide] | 82 | 0.193 |

More lines, in order of falling IC50, values ahead:

| Emax [%] | IC50 [µM] | SMILES |
| --- | --- | --- |
| 76 | 0.682 | CC(C)(O)c1cnn(-c2ccc(NC(=O)Cc3ccccc3Cl)cc2S(N)(=O)=O)c1 [Example 238, 2-(2-Chlorophenyl)-N-{4-[4-(2-hydroxypropan-2-yl)-1H-pyrazol-1-yl]-3-sulfamoyl-phenyl}acetamide] |
| 87 | 0.496 | N#Cc1ccc(Cl)c(CC(=O)Nc2ccc(-n3cc(C(F)(F)F)cn3)c(S(N)(=O)=O)c2)c1 [Example 243, 2-(2-Chloro-5-cyanophenyl)-N-{3-sulfamoyl-4-[4-(trifluoromethyl)-1H-pyrazol-1-yl]-phenyl}acetamide] |
| 88 | 0.474 | NS(=O)(=O)c1cc(NC(=O)Cc2cc(Br)ccc2Cl)ccc1-n1cc(C(F)(F)F)cn1 [Example 245, 2-(5-Bromo-2-chlorophenyl)-N-{3-sulfamoyl-4-[4-(trifluoromethyl)-1H-pyrazol-1-yl]phenyl}acetamide] |
| 73 | 0.141 | N#Cc1cc(NC(=O)Cc2ccccc2Cl)cc(S(N)(=O)=O)c1-n1cc(C(F)(F)F)cn1 [Example 244, 2-(2-Chlorophenyl)-N-{3-cyano-5-sulfamoyl-4-[4-(trifluoromethyl)-1H-pyrazol-1-yl]-phenyl}acetamide] |
| 83 | 0.092 | NS(=O)(=O)c1cc(NC(=O)Cc2ccccc2OC(F)(F)F)ccc1-c1cncc(C(F)(F)F)c1 [Example 222, N-{3-Sulfamoyl-4-[5-(trifluoromethyl)pyridin-3-yl]phenyl}-2-[2-(trifluoromethoxy)-phenyl]acetamide] |
| 74 | 0.084 | Cc1cnn(-c2ccc(NC(=O)Cc3ccccc3Cl)cc2S(N)(=O)=O)c1 [Example 248, 2-(2-Chlorophenyl)-N-[4-(4-methyl-1H-pyrazol-1-yl)-3-sulfamoylphenyl]acetamide] |
| 89 | 0.081 | CC(=O)c1cnn(-c2ccc(NC(=O)Cc3ccccc3Cl)cc2S(N)(=O)=O)c1 [Example 232, N-[4-(4-Acetyl-1H-pyrazol-1-yl)-3-sulfamoylphenyl]-2-(2-chlorophenyl)acetamide] |
| 86 | 0.037 | NS(=O)(=O)c1cc(NC(=O)Cc2ccccc2Cl)ccc1-n1cc(C(F)(F)F)nn1 [Example 242, 2-(2-Chlorophenyl)-N-{3-sulfamoyl-4-[4-(trifluoromethyl)-1H-1,2,3-triazol-1-yl]-phenyl}acetamide] |
| 94 | 0.028 | NS(=O)(=O)c1cc(NC(=O)Cc2ccccc2C(F)(F)F)ccc1-c1cnn(C(F)F)c1 [Example 224, N-{4-[1-(Difluoromethyl)-1H-pyrazol-4-yl]-3-sulfamoylphenyl}-2-[2-(trifluoromethyl)-phenyl]acetamide] |
| 87 | 0.026 | Cc1ccccc1CC(=O)Nc1ccc(-c2cnn(C(F)F)c2)c(S(N)(=O)=O)c1 [Example 223, N-{4-[1-(Difluoromethyl)-1H-pyrazol-4-yl]-3-sulfamoylphenyl}-2-(2-methylphenyl)-acetamide] |
| 96 | 0.021 | Cc1cn(-c2ccc(NC(=O)Cc3ccccc3Cl)cc2S(N)(=O)=O)cn1 [Example 251, 2-(2-Chlorophenyl)-N-[4-(4-methyl-1H-imidazol-1-yl)-3-sulfamoylphenyl]acetamide] |
